Test results taken from patent US20250221960A1, “COMPOSITIONS AND METHODS FOR THE TREATMENT OF DEPRESSION” (Janssen Pharmaceuticals, Inc., priority 2022, published 2025).

How the values were obtained:
subjects with MDD [1] = assay: SIGH-A score (anxiety), Example 1; format: in vivo, human; conditions: Treatment Week 6; 10 mg; 59 subjects analyzed
Excerpt: v. To investigate the effect of aticaprant on symptoms of anxiety using the HAM-A and on core symptoms of anxiety using the HAM-A6 subscale.
• (i) Depression: Montgomery-Åsberg Depression Rating Scale (MADRS), Clinical Global Impression-Severity (CGI-S), Symptoms of Major Depressive Disorder Scale (SMDDS), and Self-assessment of treatment experience (SATE) • (ii) Anhedonia: Snaith-Hamilton Pleasure Scale (SHAPS) • (iii) Anxiety: Structured Interview Guide for the Hamilton Anxiety scale (SIGH-A) and HAM-A6 • (iv) Effects on Cognition: The Cognitive and Physical Functioning Questionnaire (CPFQ) • (v) Safety assessments

[2] = Weight change by treatment group, Example 1; format: in vivo, human
Description: Treatment with aticaprant as described herein has several advantages over the treatments in the art. […] As used herein, the term “weight gain” refers to an increase in the weight of patient, relative to the weight of the patient before taking aticaprant or the weight of the patient that is assessed at the time of the initial administration of the aticaprant. In certain embodiments, the patient may actually see a decrease in overall weight, relative to the weight of the patient before taking aticaprant.
At the lead-in baseline timepoint, the mean weight for subjects in the placebo group was 76.17 kg compared to 78.66 in the aticaprant group. After 6 weeks in the double-blind treatment phase, the mean weight in the placebo group was 75.75 kg compared to 78.57 kg in the aticaprant group. […] This is unexpected because other adjunctive treatments for MDD result in a mean weight increase. See, Thase M, et al. J Clin Psych. 2015: 76 (9), 1224-1231; Thase, J Clin Psych. 2015, 76 (9): 1232-1240; El Khalili, Int J Neuropsychopharmacol. 2010, 13, 917-932; Marcus, J. Clin. Psychopharmacol. […] Nashville, Tenn, ACNP, 2008; Earley, American College of Neuropsychopharmacology, 2007, Annual Meeting Abstracts (Boca Raton, Fla, Dec. 9-13, 2007). Nashville, TN, ACNP, 2007). See, Table 29.

subjects with MDD [3] = assay: ASEX sexual functioning, Example 1; format: in vivo, human
Excerpt: As used herein, the term “decrease in sexual functioning” refers to reducing or lessening of one or more components of the human sex drive, i.e., sexual functioning. In some embodiments, the sexual functioning comprises one or more of sexual drive, sexual arousal, vaginal lubrication, erection, orgasm achievement, or orgasm satisfaction. In other embodiments, the sexual functioning comprises sexual drive. In further embodiments, the sexual functioning comprises vaginal lubrication satisfaction. In further embodiments, the sexual functioning comprises orgasm achievement. In yet other embodiments, the sexual functioning comprises orgasm satisfaction. Desirably, the patient's sexual functioning is assessed at the time of initial administration of the aticaprant. Thus, the patient's sexual functioning while taking aticaprant can be compared to the patient's sexual functioning before administration of aticaprant. Sexual functioning may be assessed by using standard scales and techniques such as the Arizona Sexual Experience Scale (ASEX). The ASEX is used to investigate whether aticaprant has a further positive or negative effect on sexual function. The ASEX is 5 item rating scale administered to patients that quantifies sexual drive, sexual arousal, vaginal lubrication or penile erection, ability to reach orgasm and satisfaction. Scores range from 5 to 30, and two different versions of the scale are available (males and females).
Patients had their sexual functioning measured using a standard, well accepted rating scale: ASEX. See, Table 32.

subjects with MDD [4] = assay: MADRS total score, adjunctive aticaprant vs placebo (Example 1); conditions: for MADRS Total Score Change from Baseline LSMean (SE), MMRM / MADRS Total Score LSMean Difference (SE) Treatment - Placebo, MMRM / MADRS Total Score Effect Size vs placebo / MADRS Total Score Mean Change from Baseline (SD): 10 mg
[5] = High anhedonia, Treatment Week 1, fITT
[6] = High anhedonia, Treatment Week 3, fITT
[7] = High anhedonia, Treatment Week 4, fITT
[8] = High anhedonia, Treatment Week 5, fITT
[9] = High anhedonia, Treatment Week 6, fITT
[10] = Low anhedonia, Treatment Week 1, fITT
[11] = Low anhedonia, Treatment Week 3, fITT
[12] = Low anhedonia, Treatment Week 4, fITT
[13] = Low anhedonia, Treatment Week 5, fITT
[14] = Low anhedonia, Treatment Week 6, fITT

Cc1cc(C)cc(C2CCCN2Cc2ccc(Oc3ccc(C(N)=O)cc3F)cc2)c1 (stereo not shown) [aticaprant, 3-fluoro-4-4-2-(3,5-dimethylphenyl) pyrrolidin-1-yl-methylphenoxybenzamide]
Change from Treatment Baseline in Structured Interview Guide for the SIGH-A Score, Arithmetic Mean (SD) (subjects with MDD [1]): −5.85 ± 5.369 scores on a scale
Mean weight: Relative % Change ([2]; Withdrawal vs Lead-in, n = 85): −0.11%
weight over the 6-week double blind treatment period ([2]; in vivo): remained relatively stable
Mean weight: Absolute Change (Withdrawal - Lead-in) ([2]; n = 85): -0.09 kg
ASEX score: Relative % Change (subjects with MDD [3]; Endpoint vs Baseline, n = 85): −6.91%
ASEX score: Absolute Change (subjects with MDD [3]; Endpoint vs Baseline, n = 85, lower score indicates improvement): −1.47
sexual functioning during treatment (subjects with MDD [3]; based on assessment at time of initial administration): does not experience a decrease in sexual functioning
mean change from treatment baseline (SD) in ASEX total score (subjects with MDD [3]; to week 6): -1.5 (4.02) points
MADRS Total Score: Mean Change from Baseline (SD) (subjects with MDD [4]; High anhedonia (SHAPS >=38 at treatment baseline), Treatment Week 1, fITT): −4.4 (5.04)
MADRS Total Score: Effect size (subjects with MDD [4]; [5]): −0.45
MADRS Total Score: Mean Change to Placebo (SD pooled) (subjects with MDD [4]; [5]): −2.0 (4.38)
MADRS Total Score: Effect size (subjects with MDD [4]; [6]): −0.54
MADRS Total Score: Mean Change from Baseline (SD) (subjects with MDD [4]; [6]): −6.9 (6.66)
MADRS Total Score: Mean Change to Placebo (SD pooled) (subjects with MDD [4]; [6]): −3.8 (6.94)
MADRS Total Score: Effect size (subjects with MDD [4]; [7]): −0.50
MADRS Total Score: Mean Change from Baseline (SD) (subjects with MDD [4]; [7]): −8.6 (7.32)
MADRS Total Score: Mean Change to Placebo (SD pooled) (subjects with MDD [4]; [7]): −3.8 (7.56)
MADRS Total Score: Effect size (subjects with MDD [4]; [8]): −0.51
MADRS Total Score: Mean Change from Baseline (SD) (subjects with MDD [4]; [8]): −10.2 (8.04)
MADRS Total Score: Mean Change to Placebo (SD pooled) (subjects with MDD [4]; [8]): −4.0 (7.87)
MADRS Total Score: Effect size (subjects with MDD [4]; [9]): −0.51
MADRS Total Score: Mean Change from Baseline (SD) (subjects with MDD [4]; [9]): −11.3 (8.69)
MADRS Total Score: Mean Change to Placebo (SD pooled) (subjects with MDD [4]; [9]): −4.6 (9.03)
MADRS Total Score: Mean Change from Baseline (SD) (subjects with MDD [4]; Low anhedonia (SHAPS >=20 and <38 at treatment baseline), Treatment Week 1, fITT): −2.4 (4.59)
MADRS Total Score: Effect size (subjects with MDD [4]; [10]): −0.24
MADRS Total Score: Mean Change to Placebo (SD pooled) (subjects with MDD [4]; [10]): −1.0 (4.39)
MADRS Total Score: Effect size (subjects with MDD [4]; [11]): −0.08
MADRS Total Score: Mean Change from Baseline (SD) (subjects with MDD [4]; [11]): −4.1 (6.67)
MADRS Total Score: Mean Change to Placebo (SD pooled) (subjects with MDD [4]; [11]): −0.5 (6.37)
MADRS Total Score: Effect size (subjects with MDD [4]; [12]): −0.23
MADRS Total Score: Mean Change from Baseline (SD) (subjects with MDD [4]; [12]): −6.4 (6.77)
MADRS Total Score: Mean Change to Placebo (SD pooled) (subjects with MDD [4]; [12]): −1.5 (6.65)
MADRS Total Score: Effect size (subjects with MDD [4]; [13]): −0.10
MADRS Total Score: Mean Change from Baseline (SD) (subjects with MDD [4]; [13]): −7.3 (6.90)
MADRS Total Score: Mean Change to Placebo (SD pooled) (subjects with MDD [4]; [13]): −0.7 (6.86)
MADRS Total Score: Effect size (subjects with MDD [4]; [14]): −0.29
MADRS Total Score: Mean Change from Baseline (SD) (subjects with MDD [4]; [14]): −8.8 (7.48)
MADRS Total Score: Mean Change to Placebo (SD pooled) (subjects with MDD [4]; [14]): −2.3 (7.80)
Change from Treatment Baseline in MADRS Total Score, Least Squares Mean Difference point estimate (subjects with MDD [4]; Treatment Week 6, both responders and non-responders during placebo lead-in, 10 mg vs placebo): −3.1 score on a scale
MADRS LSMeans difference estimate, supplementary MMRM analysis (data prior to 15 Mar. 2020, COVID-19) (subjects with MDD [4]; eITT): −3.0
MADRS Total Score Mean Change to Placebo (subjects with MDD [4]; eITT, High anhedonia (baseline SHAPS >=38), Treatment Week 1): −1.8
MADRS Total Score Mean Change to Placebo (subjects with MDD [4]; eITT, High anhedonia (baseline SHAPS >=38), Treatment Week 3): −3.0
MADRS Total Score Mean Change to Placebo (subjects with MDD [4]; eITT, High anhedonia (baseline SHAPS >=38), Treatment Week 4): −2.2
MADRS Total Score Mean Change to Placebo (subjects with MDD [4]; eITT, High anhedonia (baseline SHAPS >=38), Treatment Week 5): −2.6
MADRS Total Score Mean Change to Placebo (subjects with MDD [4]; eITT, High anhedonia (baseline SHAPS >=38), Treatment Week 6): −3.4
MADRS Total Score Mean Change to Placebo (subjects with MDD [4]; eITT, Low anhedonia (baseline SHAPS >=20 and <38), Treatment Week 1): −0.5
MADRS Total Score Mean Change to Placebo (subjects with MDD [4]; eITT, Low anhedonia (baseline SHAPS >=20 and <38), Treatment Week 3): −0.1
MADRS Total Score Mean Change to Placebo (subjects with MDD [4]; eITT, Low anhedonia (baseline SHAPS >=20 and <38), Treatment Week 4): 0.0
MADRS Total Score Mean Change to Placebo (subjects with MDD [4]; eITT, Low anhedonia (baseline SHAPS >=20 and <38), Treatment Week 5): 0.3
MADRS Total Score Mean Change to Placebo (subjects with MDD [4]; eITT, Low anhedonia (baseline SHAPS >=20 and <38), Treatment Week 6): −0.9
MADRS Total Score Change from Baseline LSMean (SE), MMRM (subjects with MDD [4]; eITT, Treatment Week 1): 3.2
MADRS Total Score LSMean Difference (SE) Treatment - Placebo, MMRM (subjects with MDD [4]; eITT, Treatment Week 1): −1.2
MADRS Total Score Effect Size vs placebo (subjects with MDD [4]; eITT, Treatment Week 3): −0.22
MADRS Total Score LSMean Difference (SE) Treatment - Placebo, MMRM (subjects with MDD [4]; eITT, Treatment Week 3): −1.5
MADRS Total Score Effect Size vs placebo (subjects with MDD [4]; eITT, Treatment Week 4): −0.14
MADRS Total Score LSMean Difference (SE) Treatment - Placebo, MMRM (subjects with MDD [4]; eITT, Treatment Week 4): −1.1
MADRS Total Score Effect Size vs placebo (subjects with MDD [4]; eITT, Treatment Week 5): −0.14
MADRS Total Score LSMean Difference (SE) Treatment - Placebo, MMRM (subjects with MDD [4]; eITT, Treatment Week 5): −1.5
percentage of subjects with MADRS remission (MADRS total score≤10) (subjects with MDD [4]; eITT, Treatment Week 6): 16.9%
MADRS Total Score LSMean Difference (SE) Treatment - Placebo, MMRM (subjects with MDD [4]; eITT, Treatment Week 6): −2.1
MADRS LSMeans difference estimate, supplementary MMRM analysis (data prior to 15 Mar. 2020, COVID-19) (subjects with MDD [4]; fITT): −3.4
onset of significant treatment effect (MADRS LS mean change from baseline) (subjects with MDD [4]; fITT, FIG. 7B): 3 week
MADRS Total Score LSMean Difference (SE) Treatment - Placebo, MMRM (subjects with MDD [4]; fITT, Treatment Week 1): −1.6
MADRS Total Score Mean Change from Baseline (SD) (subjects with MDD [4]; fITT, Treatment Week 1): −3.1
MADRS Total Score Change from Baseline LSMean (SE), MMRM (subjects with MDD [4]; fITT, Treatment Week 3): −5.2
MADRS Total Score Effect Size vs placebo (subjects with MDD [4]; fITT, Treatment Week 3): −0.26
MADRS Total Score LSMean Difference (SE) Treatment - Placebo, MMRM (subjects with MDD [4]; fITT, Treatment Week 3): −1.9
MADRS Total Score Mean Change from Baseline (SD) (subjects with MDD [4]; fITT, Treatment Week 3): −5.1
MADRS Total Score Effect Size vs placebo (subjects with MDD [4]; fITT, Treatment Week 4): −0.32
MADRS Total Score LSMean Difference (SE) Treatment - Placebo, MMRM (subjects with MDD [4]; fITT, Treatment Week 4): −2.5
MADRS Total Score Mean Change from Baseline (SD) (subjects with MDD [4]; fITT, Treatment Week 4): −7.2
MADRS Total Score Effect Size vs placebo (subjects with MDD [4]; fITT, Treatment Week 5): −0.26
MADRS Total Score LSMean Difference (SE) Treatment - Placebo, MMRM (subjects with MDD [4]; fITT, Treatment Week 5): −2.4
MADRS Total Score Mean Change from Baseline (SD) (subjects with MDD [4]; fITT, Treatment Week 5): −8.3
percentage of subjects with MADRS remission (MADRS total score≤10) (subjects with MDD [4]; fITT, Treatment Week 6): 31.2%
MADRS Total Score Change from Baseline LSMean (SE), MMRM (subjects with MDD [4]; fITT, Treatment Week 6): −9.6
MADRS Total Score LSMean Difference (SE) Treatment - Placebo, MMRM (subjects with MDD [4]; fITT, Treatment Week 6): −3.1
MADRS total score difference between aticaprant and placebo (subjects with MDD [4]; fITT, low anhedonia level (n=94), Treatment Week 6): −2.3
LSMD (MADRS) in high anhedonia group relative to low anhedonia group (subjects with MDD [4]; week 6): more than double
